Measurements reported in patent US5089497A, “Substituted piperazines as central nervous system agents” (Warner-Lambert Company, priority 1990, dated 1992).

Tests used:
[1] = biological target: T1, [^3 H]Spiroperidol Binding (Homo sapiens, UniProt P14416); assay: Inhibition of [^3 H]spiroperidol binding in a receptor assay
T1 construct: from tissue; host or cells: brain (striatum) membranes
Procedure: (§1) The compounds of Formula I are valuable dopaminergic agents. […] Thus, the compounds of Formula I were tested for their ability to inhibit locomotor activity in mice according to the assay described by J. R. McLean, et al, Pharmacology, Biochemistry and Behavior, Volume 8, pages 97-99 (1978); for their ability to inhibit [^3 H]spiroperidol binding in a receptor assay described by D. Grigoriadis and P. Seeman, Journal of Neurochemistry, Volume 44, pages 1925-1935 (1985); and for their ability to inhibit dopamine synthesis in rats according to the protocol described by J. R. Walters and R. H. Roth, Naunyn-Schmiedeberg's Archives of Pharmacology, Volume 296, pages 5-14 (1976). The above test methods are incorporated herein by reference. The data in the table show the dopaminergic activity of representative compounds of Formula I.

[2] = test system: Brain Dopamine Synthesis; assay: Reversal of brain dopamine synthesis in rats (inhibition of dopamine synthesis); type: in vivo; conditions: at 10 mg/kg, IP
Procedure: as §1

[3] = test system: Locomotor Activity in Mice; assay: Inhibition of locomotor activity in mice; type: in vivo; conditions: Mus musculus, IP
From the text: The above test methods are incorporated herein by reference.

T1 sequence (P14416 whole entry): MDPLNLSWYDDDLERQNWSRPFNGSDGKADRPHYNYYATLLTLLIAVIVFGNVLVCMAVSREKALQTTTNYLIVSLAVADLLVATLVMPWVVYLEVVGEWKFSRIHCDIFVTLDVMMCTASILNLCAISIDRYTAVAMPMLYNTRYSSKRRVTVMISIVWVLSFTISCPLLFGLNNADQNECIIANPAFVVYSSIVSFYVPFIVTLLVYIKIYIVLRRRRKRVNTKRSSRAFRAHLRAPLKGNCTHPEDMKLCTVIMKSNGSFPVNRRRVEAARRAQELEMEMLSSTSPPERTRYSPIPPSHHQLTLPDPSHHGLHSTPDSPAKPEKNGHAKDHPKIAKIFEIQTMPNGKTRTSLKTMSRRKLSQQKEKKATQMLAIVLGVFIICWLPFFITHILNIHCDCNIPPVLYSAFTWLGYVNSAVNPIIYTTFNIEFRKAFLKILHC

IC50 [1]	Compound	% Reversal of Brain Dopamine Synthesis in Rats [2]	ED50 [3]
0.155 µM	c1ccc(N2CCN(CCCCc3cnc4ccccc4c3)CC2)nc1 [Example 11]	100%	2.2 mg/kg
0.835 µM	c1ccc(N2CCN(CCCCc3ccncc3)CC2)nc1 [Example 9]	79%	4 mg/kg
2.13 µM	O=C(CCCN1CCN(c2ccccn2)CC1)c1ccncc1 [Example 4, 1-(4-Pyridinyl)-4-[4-(2-pyridinyl)-1-piperazinyl]-1-butanone]	35%	7.6 mg/kg
4.18 µM	c1cnc(N2CCN(CCCCc3ccncc3)CC2)nc1 [Example 10, 2-[4-[4-(4-Pyridinyl)butyl]-1-piperazinyl]pyrimidine]	35%	10.1 mg/kg

More lines, now with the values behind:

Compound	IC50 [1]	% Reversal of Brain Dopamine Synthesis in Rats [2]	ED50 [3]
c1ccc(N2CCN(CCCCc3ccnc4ccccc34)CC2)nc1 [Example 13, 4-[4-[4-(2-Pyridinyl)-1-piperazinyl]butyl]quinoline]	0.279 µM		3.2 mg/kg
O=C(CCCN1CCN(c2ccccn2)CC1)c1cnc2ccccc2c1 [Example 6, 1-(3-Quinolinyl)-4-[4-(2-pyridinyl)-1-(piperazinyl)]-1-butanone]	0.486 µM		2.8 mg/kg
O=C(CCCN1CCN(c2ccccn2)CC1)c1ccnc2ccccc12 [Example 7, 1-(4-Quinolinyl)-4-[4-(2-pyridinyl)-1-piperazinyl]-1-butanone]			13 mg/kg
c1ccc(N2CCN(CCCc3cccnc3)CC2)nc1 [Example 1, 1-(2-Pyridinyl)-4-[3-(3-pyridinyl)propyl]piperazine]			3.1 mg/kg
c1cnc(N2CCN(CCCCc3cnc4ccccc4c3)CC2)nc1 [Example 12, 3-[4-[4-(2-Pyrimidinyl)-1-piperazinyl]butyl]quinoline]			1.2 mg/kg
O=C(CCCN1CCN(c2ccccn2)CC1)c1cccnc1 [Example 2, 1-(3-Pyridinyl)-4-[4-(2-pyridinyl)-1-piperazinyl]-1-butanone]	2.87 µM	43%	6.3 mg/kg
c1ccc(N2CCN(CCCCc3cccnc3)CC2)nc1 [Example 8, 1-(2-Pyridinyl)-4-[4-(3-pyridinyl)butyl]piperazine]		67%	2.7 mg/kg
